Where two headings read alike, the source gives them in different places.
Target: T1, F508delCFTR (Homo sapiens, UniProt P13569, DEL508-508)
T1 construct: expressed in transfected cells; host or cells: CFBE41o- human lung-derived epithelial cells (CFBE4lo-F508delCFTR-HRP), doxycycline-inducible
Assay: Cell Surface Expression-Horse Radish Peroxidase (CSE-HRP) Assay;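 for Maximum % activity (with co-corrector): co-corrector and positive control are both the same reference corrector at 2 µM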;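 for Maximum % activity (without co-corrector): percent of the 2 µM on-plate positive control corrector response above DMSO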
Assay type: cell-based
Conditions: for Maximum % activity (with co-corrector): with co-corrector (2 μM); for Maximum % activity (with co-corrector) / Emax: maximum at any tested concentration, normalized to on-plate positive control; for Emax: without co-corrector, read-out: Maximum % activity (without co-corrector)

[1] = test compound without co-corrector, read-out: EC50 (without co-corrector)
[2] = with co-corrector (2 μM of 3-[(2R,4R)-4-({[1-(2,2-difluoro-1,3-benzodioxol-5-yl)cyclopropyl]carbonyl}amino)-7-methoxy-3,4-dihydro-2H-chromen-2-yl]benzoic acid), read-out: EC50 (with co-corrector)

T1 sequence (P13569 with tags, fused parts or gaps DEL508-508): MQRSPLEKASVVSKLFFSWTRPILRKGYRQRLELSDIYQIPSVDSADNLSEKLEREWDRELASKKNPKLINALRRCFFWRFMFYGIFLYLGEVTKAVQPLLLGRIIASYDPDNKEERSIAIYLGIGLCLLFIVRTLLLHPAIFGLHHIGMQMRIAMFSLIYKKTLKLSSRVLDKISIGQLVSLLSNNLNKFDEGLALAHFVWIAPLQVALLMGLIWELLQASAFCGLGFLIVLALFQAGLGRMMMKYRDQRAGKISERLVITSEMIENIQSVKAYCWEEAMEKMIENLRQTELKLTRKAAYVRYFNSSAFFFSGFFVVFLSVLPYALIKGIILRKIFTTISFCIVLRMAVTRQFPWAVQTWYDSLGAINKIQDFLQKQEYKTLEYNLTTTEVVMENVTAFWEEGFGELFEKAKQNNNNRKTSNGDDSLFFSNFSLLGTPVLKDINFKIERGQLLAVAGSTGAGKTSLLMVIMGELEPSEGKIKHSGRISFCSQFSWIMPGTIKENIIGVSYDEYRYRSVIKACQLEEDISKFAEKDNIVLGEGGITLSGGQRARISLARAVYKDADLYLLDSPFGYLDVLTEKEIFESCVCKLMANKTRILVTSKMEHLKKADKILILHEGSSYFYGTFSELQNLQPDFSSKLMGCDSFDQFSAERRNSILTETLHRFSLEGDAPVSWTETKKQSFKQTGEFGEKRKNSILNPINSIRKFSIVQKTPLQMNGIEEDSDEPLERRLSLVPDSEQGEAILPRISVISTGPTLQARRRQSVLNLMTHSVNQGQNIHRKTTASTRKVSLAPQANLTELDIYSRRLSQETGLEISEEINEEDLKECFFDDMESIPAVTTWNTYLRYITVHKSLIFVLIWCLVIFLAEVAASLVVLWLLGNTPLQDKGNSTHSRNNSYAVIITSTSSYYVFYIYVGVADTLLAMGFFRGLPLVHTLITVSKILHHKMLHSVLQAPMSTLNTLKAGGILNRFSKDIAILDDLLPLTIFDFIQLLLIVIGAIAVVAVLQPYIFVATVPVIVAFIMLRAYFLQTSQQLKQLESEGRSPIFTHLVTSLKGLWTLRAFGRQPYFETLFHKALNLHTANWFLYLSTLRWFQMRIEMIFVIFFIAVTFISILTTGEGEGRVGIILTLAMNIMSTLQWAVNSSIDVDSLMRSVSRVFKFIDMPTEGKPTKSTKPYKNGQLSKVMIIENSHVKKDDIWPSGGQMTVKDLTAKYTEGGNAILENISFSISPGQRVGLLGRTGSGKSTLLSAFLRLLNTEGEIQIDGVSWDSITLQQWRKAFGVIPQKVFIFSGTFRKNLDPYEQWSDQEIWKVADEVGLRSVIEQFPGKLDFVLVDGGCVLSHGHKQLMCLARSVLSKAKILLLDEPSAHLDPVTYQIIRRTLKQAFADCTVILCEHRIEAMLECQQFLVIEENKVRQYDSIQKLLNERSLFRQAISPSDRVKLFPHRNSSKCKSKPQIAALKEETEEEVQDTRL

SMILES	EC50 [1]	EC50 [2]	Maximum % activity (with co-corrector)	Emax
COc1ncc(C2CCC2)cc1CN[C@H]1[C@H](C(C)(C)C)[C@@H](C(=O)O)N(C(=O)OC(C)C)[C@H]1c1cccnc1OC(C)C [Example 87, (2S,3S,4S,5S)-3-tert-butyl-4-{[(5-cyclobutyl-2-methoxypyridin-3-yl)methyl]amino}-1-{[(propan-2-yl)oxy]carbonyl}-5-{2-[(propan-2-yl)oxy]pyridin-3-yl}pyrrolidine-2-carboxylic acid]	1000 to 10000 nM	1000 to 10000 nM	+++ (≥350)	> 200%
COc1cc(C(F)(F)F)ccc1CN[C@H]1[C@H](C(C)(C)C)[C@@H](C(=O)O)N(C(=O)C2CCCCC2)[C@H]1c1ccccc1C [Example 88, (2S,3S,4S,5S)-3-tert-butyl-1-(cyclohexanecarbonyl)-4-({[2-methoxy-4-(trifluoromethyl)phenyl]methyl}amino)-5-(2-methylphenyl)pyrrolidine-2-carboxylic acid]	< 1000 nM	< 1000 nM	+++ (≥350)	> 200%
COc1ncc(C2CCC2)cc1CN[C@H]1[C@H](C(C)(C)C)[C@@H](C(=O)O)N(C(=O)[C@@H]2CCCO2)[C@H]1c1ccccc1C(C)C [Example 89, (2S,3S,4S,5S)-3-tert-butyl-4-{[(5-cyclobutyl-2-methoxypyridin-3-yl)methyl]amino}-1-[(2S)-oxolane-2-carbonyl]-5-[2-(propan-2-yl)phenyl]pyrrolidine-2-carboxylic acid]	1000 to 10000 nM	< 1000 nM	+++ (≥350)	> 200%
COc1cc2c(cc1CN[C@H]1[C@H](C(C)(C)C)[C@@H](C(=O)O)N(C(=O)OC(C)C)[C@H]1c1ccccc1C)CCC2 [Example 90, (2S,3S,4S,5S)-3-tert-butyl-4-{[(6-methoxy-2,3-dihydro-1H-inden-5-yl)methyl]amino}-5-(2-methylphenyl)-1-{[(propan-2-yl)oxy]carbonyl}pyrrolidine-2-carboxylic acid]	1000 to 10000 nM	1000 to 10000 nM	+++ (≥350)	> 200%
COc1ncc(C(F)(F)F)cc1CN[C@H]1[C@H](C(C)(C)C)[C@@H](C(=O)O)N(C(=O)OC(C)C)[C@H]1c1ccccc1C1CC1 [Example 91, (2S,3S,4S,5S)-3-tert-butyl-5-(2-cyclopropylphenyl)-4-({[2-methoxy-5-(trifluoromethyl)pyridin-3-yl]methyl}amino)-1-{[(propan-2-yl)oxy]carbonyl}pyrrolidine-2-carboxylic acid]	< 1000 nM	< 1000 nM	+++ (≥350)	> 200%
COc1ncc(C2CCC2)cc1CN[C@H]1[C@H](C(C)(C)C)[C@@H](C(=O)O)N(C(=O)C2CCCCC2)[C@H]1c1ccccc1C [Example 92, (2S,3S,4S,5S)-3-tert-butyl-4-{[(5-cyclobutyl-2-methoxypyridin-3-yl)methyl]amino}-1-(cyclohexanecarbonyl)-5-(2-methylphenyl)pyrrolidine-2-carboxylic acid]	< 1000 nM	< 1000 nM	+++ (≥350)	> 200%
COc1ncc(C2CCC2)cc1CN[C@H]1[C@H](C(C)(C)C)[C@@H](C(=O)O)N(C(=O)OC(C)C)[C@H]1c1ccccc1C1CC1 [Example 93, (2S,3S,4S,5S)-3-tert-butyl-4-{[(5-cyclobutyl-2-methoxypyridin-3-yl)methyl]amino}-5-(2-cyclopropylphenyl)-1-{[(propan-2-yl)oxy]carbonyl}pyrrolidine-2-carboxylic acid]	1000 to 10000 nM	< 1000 nM	+++ (≥350)	> 200%
COc1ncc(C2CCC2)cc1CN[C@H]1[C@H](C(C)(C)C)[C@@H](C(=O)O)N(C(=O)OC(C)C)[C@H]1c1ccccc1C [Example 94, (2S,3S,4S,5S)-3-tert-butyl-4-{[(5-cyclobutyl-2-methoxypyridin-3-yl)methyl]amino}-5-(2-methylphenyl)-1-{[(propan-2-yl)oxy]carbonyl}pyrrolidine-2-carboxylic acid]	1000 to 10000 nM	< 1000 nM	+++ (≥350)	> 200%
COc1ncc(C(F)(F)F)cc1CN[C@H]1[C@H](C(C)(C)C)[C@@H](C(=O)O)N(C(=O)[C@@H]2CCCO2)[C@H]1c1ccccc1C(C)C [Example 95, (2S,3S,4S,5S)-3-tert-butyl-4-({[2-methoxy-5-(trifluoromethyl)pyridin-3-yl]methyl}amino)-1-[(2S)-oxolane-2-carbonyl]-5-[2-(propan-2-yl)phenyl]pyrrolidine-2-carboxylic acid]	< 1000 nM	< 1000 nM	+++ (≥350)	> 200%
COc1ccc(C(C)(C)C)cc1CN[C@H]1[C@H](C(C)(C)C)[C@@H](C(=O)O)N(C(=O)[C@@H]2CCCO2)[C@H]1c1cccnc1C1CC1 [Example 96, (2S,3S,4S,5S)-3-tert-butyl-4-{[(5-tert-butyl-2-methoxyphenyl)methyl]amino}-5-(2-cyclopropylpyridin-3-yl)-1-[(2S)-oxolane-2-carbonyl]pyrrolidine-2-carboxylic acid]	1000 to 10000 nM	1000 to 10000 nM	+++ (≥350)	100 to 200%
CCOC(=O)N1[C@H](C(=O)O)[C@@H](C(C)(C)C)[C@H](NCc2cc(C(F)(F)F)cnc2OC)[C@@H]1c1ccccc1C(C)C [Example 97, (2S,3S,4S,5S)-3-tert-butyl-1-(ethoxycarbonyl)-4-({[2-methoxy-5-(trifluoromethyl)pyridin-3-yl]methyl}amino)-5-[2-(propan-2-yl)phenyl]pyrrolidine-2-carboxylic acid]	< 1000 nM	< 1000 nM	+++ (≥350)	> 200%
COc1ncc(C(F)(F)F)cc1CN[C@H]1[C@H](C(C)(C)C)[C@@H](C(=O)O)N(C(=O)C2CCCC2)[C@H]1c1ccccc1C(C)C [Example 98, (2S,3S,4S,5S)-3-tert-butyl-1-(cyclopentanecarbonyl)-4-({[2-methoxy-5-(trifluoromethyl)pyridin-3-yl]methyl}amino)-5-[2-(propan-2-yl)phenyl]pyrrolidine-2-carboxylic acid]	< 1000 nM	< 1000 nM	+++ (≥350)	> 200%
COc1ccc(C(C)(C)C)cc1CN[C@H]1[C@H](C(C)(C)C)[C@@H](C(=O)O)N(C(=O)OC(C)C)[C@H]1c1cccnc1N1CCC1 [Example 99, (2S,3S,4S,5S)-5-[2-(azetidin-1-yl)pyridin-3-yl]-3-tert-butyl-4-{[(5-tert-butyl-2-methoxyphenyl)methyl]amino}-1-{[(propan-2-yl)oxy]carbonyl}pyrrolidine-2-carboxylic acid]	1000 to 10000 nM	1000 to 10000 nM	+++ (≥350)	> 200%
COc1nc2ccccc2cc1CN[C@H]1[C@H](C(C)(C)C)[C@@H](C(=O)O)N(C(=O)[C@@H]2CCCO2)[C@H]1c1ccccc1C(C)C [Example 100, (2S,3S,4S,5S)-3-tert-butyl-4-{[(2-methoxyquinolin-3-yl)methyl]amino}-1-[(2S)-oxolane-2-carbonyl]-5-[2-(propan-2-yl)phenyl]pyrrolidine-2-carboxylic acid]	1000 to 10000 nM	< 1000 nM	+++ (≥350)	> 200%
COc1ncc(C2CC2)cc1CN[C@H]1[C@H](C(C)(C)C)[C@@H](C(=O)O)N(C(=O)[C@@H]2CCCO2)[C@H]1c1ccccc1C(C)C [Example 101, (2S,3S,4S,5S)-3-tert-butyl-4-{[(5-cyclopropyl-2-methoxypyridin-3-yl)methyl]amino}-1-[(2S)-oxolane-2-carbonyl]-5-[2-(propan-2-yl)phenyl]pyrrolidine-2-carboxylic acid]	1000 to 10000 nM	< 1000 nM	+++ (≥350)	> 200%
COc1ccc(C(C)(C)C)cc1CN[C@H]1[C@H](C(C)(C)C)[C@@H](C(=O)O)N(C(=O)C2CCC2)[C@H]1c1cccnc1N1CCC1 [Example 102, (2S,3S,4S,5S)-5-[2-(azetidin-1-yl)pyridin-3-yl]-3-tert-butyl-4-{[(5-tert-butyl-2-methoxyphenyl)methyl]amino}-1-(cyclobutanecarbonyl)pyrrolidine-2-carboxylic acid]	1000 to 10000 nM	1000 to 10000 nM	+++ (≥350)	100 to 200%
COc1ncc(C2CCC2)cc1CN[C@H]1[C@H](C(C)(C)C)[C@@H](C(=O)O)N(C(=O)[C@@H]2CCCO2)[C@H]1c1ccccc1Cl [Example 103, (2S,3S,4S,5S)-3-tert-butyl-5-(2-chlorophenyl)-4-{[(5-cyclobutyl-2-methoxypyridin-3-yl)methyl]amino}-1-[(2S)-oxolane-2-carbonyl]pyrrolidine-2-carboxylic acid]	1000 to 10000 nM	1000 to 10000 nM	+++ (≥350)	100 to 200%
COc1ccc(C(C)(C)C)cc1CN[C@H]1[C@H](C(C)(C)C)[C@@H](C(=O)O)N(C(=O)[C@@H]2CCCO2)[C@H]1c1ccccc1C(C)C [Example 104, (2S,3S,4S,5S)-3-tert-butyl-4-{[(5-tert-butyl-2-methoxyphenyl)methyl]amino}-1-[(2S)-oxolane-2-carbonyl]-5-[2-(propan-2-yl)phenyl]pyrrolidine-2-carboxylic acid]	1000 to 10000 nM	< 1000 nM	+++ (≥350)	> 200%
